Measured values as given in publication PMC5830402, “Cell-based glycan arrays for probing glycan–glycan binding protein interactions” (Nature Communications, 2018).

Assays:
ST3Gal4 (human α2-3ST) = target: T1, ST3Gal4 (human α2-3ST) (Homo sapiens, UniProt Q11206); assay: transfer to Lec2 cell surface, ECL lectin flow cytometry; biotin-azide / streptavidin detection; type: cell-based; conditions: added recombinant enzyme; acceptor N-glycan LacNAc on Lec2 CHO cells; 37 °C, 1 h
T1 construct: recombinant glycosyltransferase
T1 sequence (Q11206 27-333 limits assumed): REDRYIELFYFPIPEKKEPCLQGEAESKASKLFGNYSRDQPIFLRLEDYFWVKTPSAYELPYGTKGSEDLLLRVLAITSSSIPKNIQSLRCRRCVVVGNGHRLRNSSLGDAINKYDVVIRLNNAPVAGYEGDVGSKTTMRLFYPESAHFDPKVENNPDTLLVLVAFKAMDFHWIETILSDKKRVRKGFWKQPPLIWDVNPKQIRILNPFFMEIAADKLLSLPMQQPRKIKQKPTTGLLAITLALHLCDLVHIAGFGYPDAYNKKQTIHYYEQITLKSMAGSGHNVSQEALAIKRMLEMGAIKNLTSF

ST6Gal1 (rat α2-6ST) = target: T2, ST6Gal1 (rat α2-6ST) (Rattus norvegicus, UniProt P13721); assay: as above; type: cell-based; conditions: added recombinant enzyme; acceptor N-glycan LacNAc on Lec2 CHO cells; 37 °C, 1 h
T2 construct: recombinant glycosyltransferase
T2 sequence (P13721 27-403 limits assumed): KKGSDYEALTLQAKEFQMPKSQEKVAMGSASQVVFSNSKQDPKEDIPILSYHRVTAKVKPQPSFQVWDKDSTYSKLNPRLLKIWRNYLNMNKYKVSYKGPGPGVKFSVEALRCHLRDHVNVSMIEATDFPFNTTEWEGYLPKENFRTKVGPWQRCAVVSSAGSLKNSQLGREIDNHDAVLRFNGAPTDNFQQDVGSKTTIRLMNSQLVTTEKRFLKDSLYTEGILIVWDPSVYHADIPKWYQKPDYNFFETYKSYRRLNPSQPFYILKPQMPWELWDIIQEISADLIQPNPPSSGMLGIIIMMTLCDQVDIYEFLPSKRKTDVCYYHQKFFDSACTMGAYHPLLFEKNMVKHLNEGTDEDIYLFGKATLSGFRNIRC

`C#CCOC(=O)N[C@H]1[C@H]([C@H](O)[C@H](O)CO)O[C@](OP(=O)(O)OC[C@H]2O[C@@H](n3ccc(N)nc3=O)[C@H](O)[C@@H]2O)(C(=O)O)C[C@@H]1O` [compound 7, CMP-SiaPoc] was tested, and the “transfer to Lec2 cell surface, ECL lectin flow cytometry; biotin-azide / strepta” value (ST3Gal4 (human α2-3ST)) was “Upon sialylation by ST3Gal4 and ST6Gal1, Lec2 CHO cells showed a reduction in ECL binding” and the “transfer to Lec2 cell surface, ECL lectin flow cytometry; biotin-azide / strepta” value (ST6Gal1 (rat α2-6ST)) was “Upon sialylation by ST3Gal4 and ST6Gal1, Lec2 CHO cells showed a reduction in ECL binding”.
